Measured values: US8138196B2, “Antifungal wallboards and building materials and methods for the production thereof” (Syngenta Crop Protection, Inc., priority 2005, dated 2012)

How the values were obtained:
Type in all cases: cell-based
[1] = system: Alternaria tenuissima (DSM 63360); assay: Example 3 liquid culture assay on 24 well plates, solo and 2-way mixtures
Excerpt: (§1) Alternaria tenuissima (DSM 63360), Penicillium chrysogenum (DSM 895), Stachybotrys chartarum (DSM2144), Aspergillus niger (DSM 63263), Aspergillus versicolor (DSM 1943) and Aureobasidium pullulans (ATCC 15233) were separately cultivated on PDA media to […] sporulation. Spore suspensions were produced for each fungi. Spore concentrations of approx. 100.000 spores/ml were used.
(§2) Test method used: liquid culture assay on 24 well plates.
(§3) For solo (i.e. single) ai testing the formulated fungicide (100 ul) was filled into the 24 well plates and 100 ul distilled water was added. Afterwards 800 ul of 0.3% AE media was added to the plate. The spore suspension of the specific fungi was added to this media in advance containing approx. 100,000 spores/ml. The 24 well plates were sealed and incubated at 24° C.
(§4) Dependent on the growth properties of each organisms, the evaluation was done after 3 to 6 days, when the surface of the check well was covered with mycelium. The evaluation was performed by assessing the growth of the fungi related to the check growth. The results are expressed as % activity relative to the check (values of 0-100% growth). Afterwards the results were converted in % O growth inhibition.
(§5) For synergism testing of the 2-way mixtures 100 ul of each fungicide were filled into 24 well plates and 800 ul of 0.3% AE media containing the spore suspension was added. Different ratios of the 2 fungicide rates were tested at the same time.
(§6) For the mixtures of different fungicides the synergism was calculated based on the Colby equation, which is described below: […]
(§7) The fungicidal action to be expected, We, for a given combination of two fungicides can be calculated as follows (see COLBY, S. R. “Calculating synergistic and antagonistic response of herbicide combinations”. Weeds 15, pages 20-22; 1967): We=X+[Y×(100−X)/100] wherein: • X=% activity in the case of treatment with the compound of formula I at rate x, in comparison with untreated control (=0%). • Y=% activity in the case of treatment with a compound of formula II at rate y, in comparison with untreated control. • We=expected activity (% activity in comparison with untreated control) after treatment with the compound of formula I and a compound of formula II at a rate of x+y kg of active ingredient.
(§8) If the activity actually observed is greater than the expected value We (factor observed activity/expected activity >1.2), there is a synergistic effect.

[2] = system: Aspergillus niger (DSM 63263); assay: as above; conditions: test 006-2005
Excerpt: as §1, §2, §3, §4, §5, §6, §7, §8

[3] = system: Aspergillus versicolor (DSM 1943); assay: as above; conditions: test 006-2005; rate (FDL) 0.05 mg ai/l
Excerpt: as §1, §2, §3, §4, §5, §6, §7, §8

[4] = system: Penicillium chrysogenum (DSM 895); assay: as above; conditions: test 006-2005
Excerpt: as §1, §2, §3, §4, §5, §6, §7, §8

[5] = system: Alternaria tenuissima (DSM 63360); assay: Example 4 liquid culture assay on 24 and 48 well plates, 3 way mixtures; conditions: A. tenuissima
Excerpt: (§9) For test 006-2005: Alternaria tenuissima (DSM 63360), Penicillium chrysogenum (DSM 895), Cladosporium cladosporoides (DSM62121), Aspergillus niger (DSM 63263), Aspergillus versicolor (DSM 1943) and Aureobasidium pullulans (ATCC 15233) were separately cultivated on PDA media to […] sporulation. Spore suspensions were produced for each fungus. Spore concentrations of approx. 100,000 spores/ml were used.
(§10) […] Spore suspensions were produced for each fungus. Spore concentrations of approx. 100,000 spores/ml were used.
(§11) Test method used: liquid culture assay on 24 and 48 well plates respectively.
(§12) For testing of the 3 way mixtures each of the formulated fungicide (100 ul) was filled into the 24 and 48 well plates respectively. Afterwards 700 ul of 0.3% AE media was added to the plate. The spore suspension of the specific fungi was added to this media in advance containing approx. 100,000 spores/ml. For testing the solo compounds the equivalent of distilled water was added instead of the formulated fungicide volume of the mixing partners. The plates were then sealed and incubated at 24° C.
(§13) Dependent on the growth properties of each organisms, the evaluation was done after 3 to 6 days, when the surface of the check well was covered with mycelium. The evaluation was performed by assessing the growth of the fungi related to the check growth. The results are expressed as % activity relative to the check (values of 0-100% growth). Afterwards the results were converted in % growth inhibition.
(§14) For the mixtures of different fungicides the synergism was calculated based on the Colby equation, which is described above.

[6] = system: Aspergillus niger (DSM 63263); assay: as above; conditions: A. niger
Excerpt: as §9
For test 015-2006: Alternaria tenuissima (DSM 63360), Penicillium pinophilum (CBS342.61), Gliocladium virens (DSM1963), Aspergillus niger (DSM 63263), Stachybotrys chartarum (DSM 2144) and Aureobasidium pullulans (ATCC 15233) were separately cultivated on PDA media to […] sporulation. Spore suspensions were produced for each fungus. Spore concentrations of approx. 100,000 spores/ml were used.
as §11, §12, §13, §14

[7] = system: Aspergillus versicolor (DSM 1943); assay: as above; conditions: test 006-2005, A. versicolor
Excerpt: as §9, §11, §12, §13, §14

[8] = system: Stachybotrys chartarum (DSM 2144); assay: as above; conditions: test 015-2005, S. chartarum
Method: as §10, §11, §12, §13, §14

## N#Cc1c[nH]cc1-c1cccc2c1OC(F)(F)O2 [Fludioxonil]
[1]; test 006-2005, rate (FDL) 0.2 mg ai/l
  inh % (FDL alone): 70%
[1]; test 015-2005, rate (FDL) 0.2 mg ai/l
  inh % (FDL alone): 30%
[1]; test 015-2005, rate (FDL) 0.4 mg ai/l
  inh % (FDL alone): 30%
[1]; test 015-2005, rate (FDL) 0.8 mg ai/l
  inh % (FDL alone): 30%
[1]; test 015-2005, rate (FDL) 1.6 mg ai/l
  inh % (FDL alone): 50%
[1]; test 015-2005, rate (FDL) 3.1 mg ai/l
  inh % (FDL alone): 50%
[1]; test 015-2005, rate (FDL) 6.25 mg ai/l
  inh % (FDL alone): 50%
[1]; test 015-2005, rate (FDL) 12.5 mg ai/l
  inh % (FDL alone): 70%
[1]; test 015-2005, rate (FDL) 25 mg ai/l
  inh % (FDL alone): 70%
[1]; test 015-2005, rate (FDL) 50 mg ai/l
  inh % (FDL alone): 70%
[1]; test 015-2005, rate (FDL) 100 mg ai/l
  inh % (FDL alone): 70%
[1]; test 015-2005, rate (FDL) 200 mg ai/l
  inh % (FDL alone): 50%
[2]; rate (FDL) 0.2 mg ai/l
  inh % (FDL alone): 50%
[2]; rate (FDL) 0.8 mg ai/l
  inh % (FDL alone): 70%
[2]; rate (FDL) 1.6 mg ai/l
  inh % (FDL alone): 70%
[2]; rate (FDL) 3.12 mg ai/l
  inh % (FDL alone): 70%
[2]; rate (FDL) 12.5 mg ai/l
  inh % (FDL alone): 70%
[3]
  inh % (FDL alone): 10%
[4]; rate (FDL) 0.05 mg ai/l
  inh % (FDL alone): 0%
[4]; rate (FDL) 0.2 mg ai/l
  inh % (FDL alone): 50%
[5]; test 006-2005, FDL 0.2 mg ai/l
  inh % (FDL alone): 50%
[5]; test 006-2005, FDL 0.8 mg ai/l
  inh % (FDL alone): 70%
[5]; test 006-2005, FDL 1.6 mg ai/l
  inh % (FDL alone): 70%
[5]; test 015-2005, FDL 0.8 mg ai/l
  inh % (FDL alone): 50%
[5]; test 015-2005, FDL 1.6 mg ai/l
  inh % (FDL alone): 50%
[6]; test 006-2005, FDL 0.8 mg ai/l
  inh % (FDL alone): 50%
[6]; test 015-2005, FDL 0.8 mg ai/l
  inh % (FDL alone): 50%
[6]; test 015-2005, FDL 1.6 mg ai/l
  inh % (FDL alone): 50%
[6]; test 015-2005, FDL 3.1 mg ai/l
  inh % (FDL alone): 50%
[7]; FDL 0.2 mg ai/l
  inh % (FDL alone): 0%
[7]; FDL 0.8 mg ai/l
  inh % (FDL alone): 0%
[7]; FDL 1.6 mg ai/l
  inh % (FDL alone): 0%
[8]; FDL 0.05 mg ai/l
  inh % (FDL alone): 10%
[8]; FDL 0.2 mg ai/l
  inh % (FDL alone): 50%
